Tests used:
RpalOR1 [1] = molecular target: T1, RpalOR1 (Rhynchophorus palmarum, UniProt A0A8A5RCH6); test: single-sensillum recording, Drosophila at1 OSNs; type: cell-based; conditions: 500 ms, agonist
T1 sequence (A0A8A5RCH6 1-411): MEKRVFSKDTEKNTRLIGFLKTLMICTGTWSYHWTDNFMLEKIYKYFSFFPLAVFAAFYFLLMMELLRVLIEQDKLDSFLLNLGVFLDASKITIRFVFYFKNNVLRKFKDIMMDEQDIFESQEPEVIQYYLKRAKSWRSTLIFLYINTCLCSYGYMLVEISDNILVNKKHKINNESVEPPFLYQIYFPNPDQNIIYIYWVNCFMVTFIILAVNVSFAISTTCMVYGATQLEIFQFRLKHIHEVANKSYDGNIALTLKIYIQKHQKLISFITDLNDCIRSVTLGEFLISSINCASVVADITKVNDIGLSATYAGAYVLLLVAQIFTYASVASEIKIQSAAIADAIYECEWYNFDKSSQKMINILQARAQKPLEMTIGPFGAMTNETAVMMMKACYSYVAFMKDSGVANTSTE
T1 sequence (Q9VNB5 1-486 partner): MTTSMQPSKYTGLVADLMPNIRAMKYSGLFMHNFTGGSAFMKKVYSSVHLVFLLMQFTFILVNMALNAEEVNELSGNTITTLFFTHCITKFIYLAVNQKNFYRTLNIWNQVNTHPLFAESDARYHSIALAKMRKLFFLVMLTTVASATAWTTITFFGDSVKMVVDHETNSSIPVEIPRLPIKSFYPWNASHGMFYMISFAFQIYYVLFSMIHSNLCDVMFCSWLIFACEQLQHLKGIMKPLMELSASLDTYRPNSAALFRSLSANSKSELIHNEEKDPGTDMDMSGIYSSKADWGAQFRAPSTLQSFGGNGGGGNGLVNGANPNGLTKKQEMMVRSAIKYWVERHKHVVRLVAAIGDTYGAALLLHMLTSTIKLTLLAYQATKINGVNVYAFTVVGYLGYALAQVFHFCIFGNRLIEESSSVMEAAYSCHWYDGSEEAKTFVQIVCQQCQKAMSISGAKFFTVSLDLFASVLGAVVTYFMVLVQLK

RferOR1 = molecular target: T2, RferOR1 (Rhynchophorus ferrugineus, UniProt A0A4P8W8S8); test: single-sensillum recording, Drosophila at1 OSNs; type: cell-based; conditions: […] µg in paraffin oil on stimulus cartridge, […] ms; agonist
T2 sequence (A0A4P8W8S8 1-411): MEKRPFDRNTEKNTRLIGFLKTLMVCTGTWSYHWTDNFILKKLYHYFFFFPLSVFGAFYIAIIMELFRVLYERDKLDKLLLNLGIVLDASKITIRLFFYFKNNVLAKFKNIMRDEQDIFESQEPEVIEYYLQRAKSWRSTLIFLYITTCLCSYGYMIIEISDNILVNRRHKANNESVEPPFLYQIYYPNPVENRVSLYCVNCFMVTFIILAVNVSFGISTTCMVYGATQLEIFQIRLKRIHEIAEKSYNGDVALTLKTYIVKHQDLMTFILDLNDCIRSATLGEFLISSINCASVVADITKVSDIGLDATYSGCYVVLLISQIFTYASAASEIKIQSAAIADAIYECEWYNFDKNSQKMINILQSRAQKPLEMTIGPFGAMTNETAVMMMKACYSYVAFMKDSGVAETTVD
T2 sequence (Q9VNB5 1-486 partner): T1 sequence (Q9VNB5 1-486 partner)

RpalOR1 [2] = molecular target: T1, RpalOR1; conditions: 100 µg in paraffin oil on stimulus cartridge, 500 ms; agonist
RpalOR1 [3] = molecular target: T1, RpalOR1; test: single-sensillum recording, Drosophila at1 OSNs; type: cell-based; conditions: 1 µg in hexane on stimulus cartridge, 500 ms; agonist
[4] = 100 µg in paraffin oil on stimulus cartridge
[5] = 1 µg in hexane on stimulus cartridge

CCCCC(=O)OCC [ethyl valerate]
single-sensillum recording, Drosophila at1 OSNs (RpalOR1 [1]; [4]): propyl butyrate, butyl butyrate, ethyl valerate and ethyl hexanoate

CCCC(=O)C(C)CCC (stereo not drawn) [5-methyloctan-4-one]
single-sensillum recording, Drosophila at1 OSNs (RpalOR1 [1]; [5]): We also found a response to 5-methyloctan-4-one

CCCCOC(=O)CCC [butyl butyrate]
single-sensillum recording, Drosophila at1 OSNs (RferOR1): significantly activated by the same palm tree esters: propyl butyrate, butyl butyrate | single-sensillum recording, Drosophila at1 OSNs (RpalOR1 [1]; [4]): significantly activated by the same palm tree esters: propyl butyrate, butyl butyrate

CCCOC(=O)CCC [propyl butyrate]
single-sensillum recording, Drosophila at1 OSNs (RferOR1): both RpalOR1 and RferOR1 were significantly activated by the same palm tree esters: propyl butyrate | average response at 100 μg (RpalOR1 [2]): 63 action potentials per second

C/C=C/C(O)CCCC (stereo not drawn) [(E)‑oct-2-en-4-ol]
single-sensillum recording, Drosophila at1 OSNs (RpalOR1 [1]; [5]): The two last agonists were (E)‑oct-2-en-4-ol and nonan-5-one

CCCCCC(=O)OCC [ethyl hexanoate]
single-sensillum recording, Drosophila at1 OSNs (RferOR1): propyl butyrate, butyl butyrate, ethyl valerate and ethyl hexanoate | single-sensillum recording, Drosophila at1 OSNs (RpalOR1 [1]; [4]): propyl butyrate, butyl butyrate, ethyl valerate and ethyl hexanoate

CCCCC(O)C(C)CC (stereo not drawn) [phoenicol, 3-methyloctan-4-ol]
single-sensillum recording, Drosophila at1 OSNs (RpalOR1 [1]; [5]): RpalOR1 was activated by phoenicol as well as nonan-5-ol

CCCCC(O)C(C)CCC (stereo not drawn) [ferrugineol, 4-methylnonan-5-ol]
average response at 1 μg (RpalOR1 [3]): 112 action potentials per second

CCCCC(=O)CCCC [nonan-5-one]
single-sensillum recording, Drosophila at1 OSNs (RpalOR1 [1]; [5]): The two last agonists were (E)‑oct-2-en-4-ol and nonan-5-one

C/C=C/C(O)C(C)CC (stereo not drawn) [(E)−5-methylhept-2-en-4-ol]
average response at 1 μg (RpalOR1 [3]): 27 action potentials per second

CCCCC(O)CCCC [nonan-5-ol]
single-sensillum recording, Drosophila at1 OSNs (RpalOR1 [1]; [5]): RpalOR1 was activated by phoenicol as well as nonan-5-ol

CCCCC(=O)C(C)CCC (stereo not drawn) [ferrugineone, 4-methylnonan-5-one]
average response at 1 μg (RpalOR1 [3]): 103 action potentials per second

From article PMC11345504 (Current Research in Insect Science, 2024)
